Like-named read-outs stand apart in the source and are kept apart here.
Experiments:
[1] = target: T1, JAK1 JH2 pseudokinase domain (Homo sapiens, UniProt P23458); experiment: KdELECT competition binding assay, JAK1 JH2; conditions: read-out: JAK Binding Selectivity (Kd) Pseudokinase Domain (JH2) JAK1
T1 construct: purchased Eurofins DiscoverX Corporation (contract assay)
Experimental: (§1) The KdELECT competition assays were performed to test the binding affinity of compounds to the JH1 kinase region or JH2 pseudokinase region in TYK2 or JAK by ligand competition with JH1 or JH2 protein segments. The assay was carried out at Eurofins DiscoverX Corporation following the established standard protocol (DiscoverX, San Diego, CA). In this assay, compounds that bind to the kinase or pseudokinase protein regions prevent the protein binding to the immobilized ligand and reduce the amount of kinase matter captured on the solid surface. […] Dissociation constants (Kds) for test compound-kinase interactions are calculated by measuring the amount of kinase captured on the solid support as a function of the test compound concentration. […] The ligated beads were blocked with excess biotin and washed with blocking buffer to remove unbound ligand and to reduce nonspecific binding. […] All reactions were performed in polypropylene 384-well plates with a final volume of 20 μL. […] The beads were then re-suspended in the elution buffer and incubated at room temperature with shaking for 30 minutes. The kinase concentration in the eluant was measured by qPCR. Two replicates were performed and averaged to obtain the Kd measurement.

[2] = target: T2, JAK2 JH2 pseudokinase domain (Homo sapiens, UniProt O60674); experiment: KdELECT competition binding assay, JAK2 JH2; conditions: read-out: JAK Binding Selectivity (Kd) Pseudokinase Domain (JH2) JAK2
T2 construct: purchased Eurofins DiscoverX Corporation (contract assay)
T2 sequence (O60674 545-809 limits assumed): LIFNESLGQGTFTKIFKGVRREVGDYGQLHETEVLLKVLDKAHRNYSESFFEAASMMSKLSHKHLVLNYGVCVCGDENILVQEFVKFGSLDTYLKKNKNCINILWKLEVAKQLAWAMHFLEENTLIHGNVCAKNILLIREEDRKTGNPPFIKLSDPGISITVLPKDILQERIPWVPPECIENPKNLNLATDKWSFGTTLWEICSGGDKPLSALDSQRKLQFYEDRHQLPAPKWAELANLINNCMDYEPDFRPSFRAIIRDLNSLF
Experimental: as §1

TYK2 JH1 kinase domain = target: T3, TYK2 JH1 kinase domain (Homo sapiens, UniProt P29597); experiment: KdELECT competition binding assay, TYK2 JH1; conditions: isolated TYK2 JH1 domain
T3 construct: purchased Eurofins DiscoverX Corporation (contract assay)
T3 sequence (P29597 897-1176 limits assumed): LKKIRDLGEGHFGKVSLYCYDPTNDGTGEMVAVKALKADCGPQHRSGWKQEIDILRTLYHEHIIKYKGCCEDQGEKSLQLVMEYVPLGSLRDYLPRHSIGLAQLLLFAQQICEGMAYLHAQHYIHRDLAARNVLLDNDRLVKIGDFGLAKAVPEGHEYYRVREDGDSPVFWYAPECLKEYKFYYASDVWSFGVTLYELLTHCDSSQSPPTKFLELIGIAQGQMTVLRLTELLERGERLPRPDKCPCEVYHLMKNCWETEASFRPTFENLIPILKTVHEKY
Experimental: as §1

[3] = test system: IL23-induced TYK2/phosphoSTAT3 (Tyr705) in Kit225 T cells; experiment: Kit225 T cell assay for IL23-induced TYK2/phosphoSTAT3 activity; format: cell-based, human; conditions: Homo sapiens; Kit225 cells, 100 ng/mL IL23, AlphaLISA; read-out: IC50 IL23-induced-STAT3 Phosphorylation
Experimental: (§2) The cells were treated with serially diluted compounds for 1 hour and stimulated with 100 ng/mL human recombinant IL23 (R&D Systems) for 20 minutes. The treated cells were then lysed and cellular phosphorylated-STAT3 (Tyr705) levels were measured by AlphaLISA (PerkinElmer, Cat# ALSU-PST3) according to the manufacturer’s instructions.

LogD = format: physicochemical
GSH = format: in vitro ADME
PPB, Mk = format: in vitro ADME; conditions: monkey, plasma
[4] = test system: JAK1-dependent IL6-induced phosphorylation of STAT3 (Tyr705) in TF1 cells; experiment: JAK cellular selectivity assay, IL6-pSTAT3 (JAK1); format: cell-based; conditions: Homo sapiens, TF-1; TF1 cells; read-out: JAK Cellular Selectivity (IC50) IL6-pSTAT3 (JAK1)
Experimental: (§3) The cells were then ready for the assay after incubating for 2 hours in a humidified, 5% CO2 cell culture incubator at 37°C. […] The curve fit was generated, and statistical analysis was performed using GraphPad Prism. IC50 values were derived by non-linear regression analysis and defined as the compound concentration at which the response level was reduced to half of its maximum relative to a DMSO control.

CYP450 2C19 = CYP450 2C19 (Homo sapiens, UniProt P33261); experiment: CYP450 inhibition, 2C19; format: in vitro ADME
Sequence of CYP450 2C19 (P33261 whole entry): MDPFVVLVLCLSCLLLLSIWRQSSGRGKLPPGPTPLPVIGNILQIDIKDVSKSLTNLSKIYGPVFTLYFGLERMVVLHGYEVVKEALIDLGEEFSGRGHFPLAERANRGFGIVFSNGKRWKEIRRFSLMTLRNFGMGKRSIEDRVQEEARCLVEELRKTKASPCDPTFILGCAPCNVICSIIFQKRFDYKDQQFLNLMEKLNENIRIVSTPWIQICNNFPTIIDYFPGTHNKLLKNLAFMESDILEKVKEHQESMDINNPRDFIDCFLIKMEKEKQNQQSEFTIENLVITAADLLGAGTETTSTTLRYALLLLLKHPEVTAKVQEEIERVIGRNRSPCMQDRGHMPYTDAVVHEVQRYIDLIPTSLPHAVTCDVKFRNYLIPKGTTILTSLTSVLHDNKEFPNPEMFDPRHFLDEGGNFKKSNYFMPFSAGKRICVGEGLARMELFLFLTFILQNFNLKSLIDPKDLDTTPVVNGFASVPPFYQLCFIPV

CYP450 3A4 = CYP450 3A4 (Homo sapiens, UniProt P08684); experiment: CYP450 inhibition, 3A4; format: in vitro ADME
Sequence of CYP450 3A4 (P08684 whole entry): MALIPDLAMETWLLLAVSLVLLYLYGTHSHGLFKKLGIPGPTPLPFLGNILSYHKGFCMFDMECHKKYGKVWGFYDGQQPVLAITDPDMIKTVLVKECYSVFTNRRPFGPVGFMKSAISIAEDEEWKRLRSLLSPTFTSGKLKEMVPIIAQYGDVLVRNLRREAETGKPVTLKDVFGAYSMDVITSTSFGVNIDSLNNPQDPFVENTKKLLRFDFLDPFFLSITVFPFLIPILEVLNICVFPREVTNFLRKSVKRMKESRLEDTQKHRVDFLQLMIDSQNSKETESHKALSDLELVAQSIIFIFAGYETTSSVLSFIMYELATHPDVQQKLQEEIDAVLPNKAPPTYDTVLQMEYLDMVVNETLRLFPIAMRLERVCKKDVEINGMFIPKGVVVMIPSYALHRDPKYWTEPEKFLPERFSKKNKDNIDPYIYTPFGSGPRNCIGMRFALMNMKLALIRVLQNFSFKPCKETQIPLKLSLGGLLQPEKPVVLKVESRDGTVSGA

[5] = test system: JAK2-dependent EPO-induced phosphorylation of STAT5 (Tyr694/699) in TF1 cells; experiment: JAK cellular selectivity assay, EPO-pSTAT5 (JAK2); format: cell-based, human; conditions: Homo sapiens, TF-1; TF1 cells; read-out: JAK Cellular Selectivity (IC50) EPO-pSTAT5 (JAK2)
Experimental: as §3

JAK3 JH1 kinase domain = target: T4, JAK3 JH1 kinase domain (Homo sapiens, UniProt P52333); experiment: KdELECT competition binding assay, JAK3 JH1; conditions: read-out: JAK Binding Selectivity (Kd) Catalytical Domain (JH1) JAK3
T4 construct: purchased Eurofins DiscoverX Corporation (contract assay)
T4 sequence (P52333 822-1111 limits assumed): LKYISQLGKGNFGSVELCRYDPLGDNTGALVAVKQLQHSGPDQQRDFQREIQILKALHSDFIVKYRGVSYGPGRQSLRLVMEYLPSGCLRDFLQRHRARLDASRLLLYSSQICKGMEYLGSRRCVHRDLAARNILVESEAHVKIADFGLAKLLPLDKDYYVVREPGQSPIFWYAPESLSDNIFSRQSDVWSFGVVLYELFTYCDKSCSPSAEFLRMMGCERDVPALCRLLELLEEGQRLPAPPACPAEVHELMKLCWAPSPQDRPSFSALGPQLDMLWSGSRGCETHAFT
Experimental: as §1

[6] = test system: IFNα-induced TYK2/phosphoSTAT1 (Tyr701) in Kit225 T cells; experiment: Kit225 T cell assay for IFNα-induced TYK2/phosphoSTAT1 activity; format: cell-based, human; conditions: Homo sapiens; Kit225 cells, 80 ng/mL IFNα, AlphaLISA; read-out: IC50 IFNα-induced-STAT1 Phosphorylation
Experimental: as §2, with “80” for “100”, “IFNα” for “IL23”, “15” for “20”, “phosphorylated-STAT1 (Tyr701)” for “phosphorylated-STAT3 (Tyr705)”, “Cat#ALSU-PST1)” for “Cat# ALSU-PST3)”

[7] = test system: IFNα-induced TYK2-mediated IRF activity in Jurkat-Dual T cells; experiment: Jurkat T cell reporter assay for IFNα-induced TYK2-mediated IRF activity; format: cell-based; conditions: Homo sapiens, SEAP
Description: Jurkat-Dual™ T cells (In vivogen, jktd-isnf) were purchased from In vivogen (San Diego, CA). The cells feature the dual-reporter system, with a Lucia luciferase gene driven by an interferon-β (IFN-β) minimal promoter fused to the NFκB consensus transcriptional response element and the c-Rel binding site, as well as a secreted embryonic alkaline phosphatase (SEAP) reporter gene under the control of an IFN-stimulated gene 54 (ISG54) minimal promoter in conjunction with five IFN-stimulated response elements. With the dual-reporter design, Jurkat-Dual™ cells allow the simultaneous investigation of both the NFκB pathway, by monitoring the Lucia luciferase, and the interferon regulatory factor (IRF) pathway, by assessing the activity of SEAP. In this study, the Jurkat-Dual™ T cells were plated at a sterilized U-shaped 96-well plate in RPMI (Thermo Fisher) containing 10% heat-inactivated Fetal Bovine Serum (FBS) (Thermo Fisher) and 100 U/mL Penicillin-Streptomycin (Thermo Fisher) at a density of 2.0 × 10^6/mL. Seeded cells were treated with serially diluted compounds and stimulated with 80 ng/mL human recombinant IFNα (Biolegend, # 592702) overnight in a humidified, 5% CO2 cell culture incubator at 37°C. Activity of SEAP was then detected from the cell cultured supernatant according to the manufacturer’s instructions.

[8] = 3A4(m), read-out: CYP450 3A4(m)
[9] = 3A4(t), read-out: CYP450 3A4(t)

T1 sequence (P23458 583-855 limits assumed): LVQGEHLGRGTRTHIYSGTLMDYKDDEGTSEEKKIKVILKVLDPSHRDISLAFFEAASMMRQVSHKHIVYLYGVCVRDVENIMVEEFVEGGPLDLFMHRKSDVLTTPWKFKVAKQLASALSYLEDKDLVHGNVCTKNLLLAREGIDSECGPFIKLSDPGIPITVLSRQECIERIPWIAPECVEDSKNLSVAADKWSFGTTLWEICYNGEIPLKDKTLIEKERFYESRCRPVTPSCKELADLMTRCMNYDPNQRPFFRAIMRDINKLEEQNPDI

Row | SMILES | Kd [1] | Kd [2] | Kd (TYK2 JH1 kinase domain) | IC50 [3] | logD (LogD) | GSH (GSH) | fraction unbound (PPB, Mk) | IC50 [4] | IC50 (CYP450 2C19) | IC50 (CYP450 3A4; [8]) | IC50 (CYP450 3A4; [9]) | IC50 [5] | Kd (JAK3 JH1 kinase domain) | IC50 [6] | IC50 [7]
1 | CNC(=O)c1nnc(NC(=O)C2CC2)c2[nH]c(-c3ccc(N)cc3OC)cc12 [SHR2396] | 0.52 ± 0.4 nM | 190 ± 99 nM | 300 nM | 5.9 nM | 1.19 | negative | 0.0351 | 150 ± 59 nM | > 30000 nM | > 30000 nM | > 30000 nM | > 10000 nM | > 20000 nM | 15 nM | 9.7 nM
2 | CNC(=O)c1nnc(NC(=O)N2CCC2)cc1Nc1cccc(-c2ncn(C)n2)c1OC [SHR8751] | 3.7 ± 0.14 nM | 290 ± 99 nM | > 20000 nM | 27 nM | 0.43 | negative | 0.281 | 5800 ± 3700 nM | > 30000 nM | > 30000 nM | > 30000 nM | > 10000 nM | 3700 ± 70 nM | 37 nM | 48 nM
3 | [2H]C([2H])([2H])NC(=O)c1nnc(NC(=O)N2CCC2)cc1Nc1cccc(-c2ncn(C)n2)c1OC [SHR9332] | 1.8 nM | 220 nM | > 20000 nM | 79 nM | 0.48 | negative | 0.231 | 2800 ± 1700 nM | > 30000 nM | > 30000 nM | > 30000 nM | > 10000 nM | 4500 nM | 76 nM | 55 nM
